# Experimental data published in patent publication US10028961B2, “Therapeutically active compounds and their methods of use” (AGIOS PHARMACEUTICALS, INC., priority 2013, dated 2018).
# Where two headings read alike, the source gives them in different places.
# Columns and labels:
# [1] = tested on: Neurosphere cells (TS603); assay: Cellular assay for IDH1m R132H inhibitors, 2-HG by LC-MS in neurosphere cells (TS603); format: cell-based; details: 2-HG in media at 48 hours
# Procedure, shortened: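 TS603 neurosphere cells in NeuroCult medium were dosed with compound (0.25% DMSO final) at 37 C, 5% CO2. After 48 hours, medium 2-HG was measured by LC-MS. At 72 hours, viability was read by CellTiter-Glo luminescence.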
# HT1080 cells = assay: Cellular assay for IDH1m R132C inhibitors, 2-HG by LC-MS in HT1080 cells; format: cell-based; details: Homo sapiens, HT-1080
# Protocol: The following describes the experimental procedures that can be used to obtain data on column 5 of Table 4.
# Cells (HT1080 or U87MG) are grown in T125 flasks in DMEM containing 10% FBS, 1× penicillin/streptomycin and 500 ug/mL G418 (present in U87MG cells only). They are harvested by trypsin and seeded into 96 well white bottom plates at a density of 5000 cell/well in 100 ul/well in DMEM with 10% FBS. No cells are placed in columns 1 and 12. Cells are incubated overnight at 37° C. in 5% CO2. The next day test compounds are made up at 2× the final concentration and 100 ul are added to each cell well. The final concentration of DMSO is 0.2% and the DMSO control wells are plated in row G. The plates are then placed in the incubator for 48 hours. At 48 hours, 100 ul of media is removed from each well and analyzed by LC-MS for 2-HG concentrations. The cell plate is placed back in the incubator for another 24 hours. At 72 hours post compound addition, 10 mL/plate of Promega Cell Titer Glo reagent is thawed and mixed. The cell plate is removed from the incubator and allowed to equilibrate to room temperature. Then 100 ul of Promega Cell Titer Glo reagent is added to each well of media. The cell plate is then placed on an orbital shaker for 10 minutes and then allowed to sit at room temperature for 20 minutes. The plate is then read for luminescence with an integration time of 500 ms.
# HT1080 cells are maintained in RPMI containing 10% FBS, 1× penicillin/streptomycin. […] The next day compounds are prepared in 100% DMSO and then diluted in media for a final concentration of 0.2% DMSO. Media is removed from the cell plates and 200 μL of the compound dilutions are added to each well. […] The cell plates are then allowed to incubate another 24 hours.
# [2] = target: IDH1 wt/IDH1 R132H heterodimer (Homo sapiens (Human), UniProt O75874, R132H); assay: In vitro assay for IDH1m R132H inhibitors, IDH1 wt/IDH1 R132H heterodimer, NADPH depletion (diaphorase/resazurin); format: biochemical
# Procedure, shortened: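 Read-out is NADPH left after α-KG reduction to 2-HG, measured via resorufin fluorescence after 5 min diaphorase/resazurin step at 25° C. Enzyme is sf9-expressed IDH1wt-his/IDH1R132H-flag heterodimer, pre-incubated 1 hr at room temperature with compound and cofactor. IC50s from DMSO stocks diluted 1:50.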
# IDH2 R140Q = IDH2 R140Q (Homo sapiens (Human), UniProt P48735, R140Q); assay: In vitro assay for IDH2m R140Q inhibitors, cofactor depletion assay; format: biochemical; details: IDH2 R140Q enzyme
# Procedure, shortened: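 Remaining cofactor measured fluorimetrically: diaphorase/resazurin Stop Mix […], halting the reaction. Before that, mutant enzyme and compound sat 1 h at RT, then substrate mix (4 μM NADPH, 1.6 mM α-KG) was added for 16 h at RT.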
# [3] = target: IDH1-R132H homodimer enzyme (Homo sapiens (Human), UniProt O75874, R132H); assay: In vitro assay IDH1-R132H homodimer, NADPH depletion assay with NADPH/NADP preincubation; format: biochemical; details: 5 μM NADPH and 37.5 μM NADP
# Protocol: The following describes the experimental procedures that can be used to obtain data on columns 3 and 5 of Table 5.
# A test compound is prepared as 10 mM stock in DMSO and diluted to 50× final concentration in DMSO, for a 50 μl reaction mixture. IDH enzyme activity converting alpha-ketoglutarate to 2-hydroxyglutaric acid is measured using a NADPH depletion assay. In the assay the remaining cofactor is measured at the end of the reaction with the addition of a catalytic excess of diaphorase and resazurin, to generate a fluorescent signal in proportion to the amount of NADPH remaining. […] The reaction is started with the addition of 10 μl of Substrate Mix ([…], 5 mM alpha-ketoglutarate, in Assay Buffer) and the mixture is incubated for 60 minutes at room temperature.
# [4] = tested on: U87MG pLVX-IDH2 R140Q-neo cells; assay: U87MG pLVX-IDH2 R140Q-neo cell based assay, 2-HG by LC-MS; details: Homo sapiens, U-87 MG
# [5] = IDH1 wt/R132H heterodimer, NADPH/NADP, not saturated, read-out: IDH1 wt/R132H NADPH/NADP IC50 not saturated
# [6] = IDH1 wt/IDH1 R132H heterodimer, 300 μM NADP (saturated), read-out: IDH1 wt/R132H NADPH/NADP IC50 saturated
# Sequence of IDH2 R140Q (P48735 40-452 R140Q): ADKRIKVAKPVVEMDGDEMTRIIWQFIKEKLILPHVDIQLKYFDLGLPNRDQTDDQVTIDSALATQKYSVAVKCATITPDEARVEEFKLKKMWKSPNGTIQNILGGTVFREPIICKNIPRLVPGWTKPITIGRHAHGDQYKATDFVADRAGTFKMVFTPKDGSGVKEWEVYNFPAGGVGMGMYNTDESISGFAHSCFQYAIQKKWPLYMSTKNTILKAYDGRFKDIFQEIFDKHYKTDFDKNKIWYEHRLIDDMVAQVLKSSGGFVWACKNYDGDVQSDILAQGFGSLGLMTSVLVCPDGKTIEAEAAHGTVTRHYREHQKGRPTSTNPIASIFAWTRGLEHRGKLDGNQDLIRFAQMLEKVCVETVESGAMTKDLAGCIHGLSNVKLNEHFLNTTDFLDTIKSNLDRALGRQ
# Sequence of IDH1 wt/IDH1 R132H heterodimer (O75874 whole entry R132H): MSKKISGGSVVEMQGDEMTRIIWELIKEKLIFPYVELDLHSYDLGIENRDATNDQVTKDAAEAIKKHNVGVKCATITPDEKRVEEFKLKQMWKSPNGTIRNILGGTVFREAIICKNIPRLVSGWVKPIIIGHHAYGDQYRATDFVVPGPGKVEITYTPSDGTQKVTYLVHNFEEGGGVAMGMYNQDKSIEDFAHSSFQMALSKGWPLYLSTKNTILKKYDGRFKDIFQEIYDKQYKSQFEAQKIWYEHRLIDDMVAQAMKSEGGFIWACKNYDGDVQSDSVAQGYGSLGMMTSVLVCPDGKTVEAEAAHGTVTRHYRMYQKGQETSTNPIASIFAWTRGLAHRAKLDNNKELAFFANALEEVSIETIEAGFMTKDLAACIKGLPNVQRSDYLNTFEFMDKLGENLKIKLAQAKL
# Sequence of IDH1 wt/IDH1 R132H heterodimer (O75874 whole entry, stated change not applied): as the sequence (O75874 whole entry R132H) above, with H132R counted along it
# Sequence of IDH1-R132H homodimer enzyme (O75874 whole entry R132H): as the sequence (O75874 whole entry R132H) above
SMILES,IC50 [1],IC50 (HT1080 cells),"IC50 [2, 5]",IC50 (IDH2 R140Q),IC50 [3],IC50 [4],"IC50 [2, 6]"
FC1(F)CC(Nc2nc(NC3CC(F)(F)C3)nc(-c3cncc(Cl)n3)n2)C1 [Compound 144],< 50 nM,< 50 nM,< 50 nM,< 50 nM,< 50 nM,< 50 nM,–
CC(C)(O)CNc1nc(NC2CCC(F)(F)CC2)nc(-c2cccc(C(F)(F)F)n2)n1 [Compound 287],–,> 1000 nM,100 to 1000 nM,100 to 1000 nM,> 1000 nM,100 to 1000 nM,–
N#Cc1cc(F)cc(Nc2nc(NC3CCC(F)(F)C3)nc(-c3nc(C(F)(F)F)cs3)n2)c1 (stereo not drawn) [Compound 132],< 50 nM,100 to 1000 nM,< 50 nM,< 50 nM,< 50 nM,< 50 nM,–
CC(Nc1nc(Nc2ccnc(C(F)(F)F)c2)nc(-c2cccc(C(F)(F)F)n2)n1)C(F)(F)F (stereo not drawn) [Compound 171],< 50 nM,100 to 1000 nM,< 50 nM,< 50 nM,50 to 100 nM,< 50 nM,–
Nc1ccc(F)c(-c2nc(NC3CCC(F)(F)CC3)nc(NC3CCC(F)(F)CC3)n2)n1 [Compound 249],50 to 100 nM,100 to 1000 nM,50 to 100 nM,< 50 nM,> 1000 nM,100 to 1000 nM,–
N#Cc1cc(F)cc(Nc2nc(NCC3CC3)nc(-c3cccc(C(F)(F)F)n3)n2)c1 [Compound 175],< 50 nM,100 to 1000 nM,< 50 nM,< 50 nM,50 to 100 nM,< 50 nM,–
FC1(F)CC(Nc2nc(Nc3ccnc(C(F)(F)F)c3)nc(-n3ccc(C(F)(F)F)n3)n2)C1 [Compound 197],< 50 nM,100 to 1000 nM,< 50 nM,< 50 nM,100 to 1000 nM,< 50 nM,–
Fc1cc(F)cc(Nc2nc(NC3CC(F)(F)C3)nc(-c3nc(F)ccc3F)n2)c1 [Compound 195],< 50 nM,100 to 1000 nM,< 50 nM,< 50 nM,50 to 100 nM,< 50 nM,–
CC(F)(F)c1nc(-c2nc(NC3CCC(F)(F)C3)nc(NC3CCC(F)(F)C3)n2)cs1 (stereo not drawn) [Compound 155],< 50 nM,50 to 100 nM,< 50 nM,< 50 nM,< 50 nM,< 50 nM,–
C[C@@H](Nc1nc(NC(C(F)(F)F)C(F)(F)F)nc(-c2cccc(Cl)n2)n1)C(F)(F)F [Compound 100],< 50 nM,< 50 nM,< 50 nM,< 50 nM,< 50 nM,–,–
C[C@@H](Nc1nc(N[C@H](C)C(F)(F)F)nc(-c2cncc(C(F)(F)F)n2)n1)C(F)(F)F [Compound 386],< 50 nM,< 50 nM,–,< 50 nM,–,< 50 nM,< 50 nM
FC1(F)CCC(Nc2nc(NC3CN(c4ccccn4)C3)nc(-c3cccc(C(F)(F)F)n3)n2)C1 (stereo not drawn) [Compound 238],< 50 nM,100 to 1000 nM,< 50 nM,–,100 to 1000 nM,–,–
FC(F)(F)c1cc(Nc2nc(NCC3CC3)nc(-n3ccc(C(F)(F)F)n3)n2)ccn1 [Compound 407],< 50 nM,100 to 1000 nM,–,< 50 nM,–,< 50 nM,100 to 1000 nM
CC[C@@H](Nc1nc(N[C@H](CC)C(F)(F)F)nc(-c2cccc(Cl)n2)n1)C(F)(F)F [Compound 104],–,< 50 nM,< 50 nM,< 50 nM,< 50 nM,< 50 nM,–
N#CC1(c2cc(Nc3nc(NC4CCC(F)(F)CC4)nc(-c4cncc(C(F)(F)F)n4)n3)ccn2)CC1 [Compound 394],< 50 nM,100 to 1000 nM,–,< 50 nM,–,< 50 nM,< 50 nM
Nc1ccc(F)c(-c2nc(Nc3cc(F)cc(F)c3)nc(NC3CCC(F)(F)C3)n2)n1 (stereo not drawn) [Compound 153],–,50 to 100 nM,< 50 nM,< 50 nM,< 50 nM,< 50 nM,–
CC(C)(O)CNc1nc(Nc2cc(F)cc(Cl)c2)nc(-c2cccc(C(C)(F)F)n2)n1 [Compound 236],–,> 1000 nM,< 50 nM,< 50 nM,100 to 1000 nM,< 50 nM,–
Fc1cc(F)cc(Nc2nc(NC3CC(F)(F)C3)nc(-c3nc(C(F)(F)F)cs3)n2)c1 [Compound 413],–,100 to 1000 nM,–,–,< 50 nM,< 50 nM,< 50 nM
O=C1C[C@H](Nc2nc(NC3CCC(F)(F)C3)nc(-c3cccc(C(F)(F)F)n3)n2)CN1c1ccccn1 (stereo partly drawn) [Compound 239],< 50 nM,100 to 1000 nM,< 50 nM,–,100 to 1000 nM,–,–
FC(F)c1csc(-c2nc(NC3CCC(F)(F)C3)nc(NC3CCC(F)(F)C3)n2)n1 (stereo not drawn) [Compound 402],< 50 nM,< 50 nM,–,< 50 nM,–,< 50 nM,50 to 100 nM
N#CC1(c2cc(Nc3nc(NC4CC5(C4)CC(F)(F)C5)nc(-c4cncc(C(F)(F)F)n4)n3)ccn2)CC1 [Compound 385],< 50 nM,100 to 1000 nM,–,< 50 nM,–,< 50 nM,50 to 100 nM
C[C@@H](Nc1nc(N[C@H](C)C(F)(F)F)nc(-c2csc(C(F)(F)F)n2)n1)C(F)(F)F [Compound 114],< 50 nM,< 50 nM,< 50 nM,< 50 nM,–,< 50 nM,–
N#Cc1cc(Nc2nc(N[C@H]3CCC(F)(F)C3)nc(-n3ccc(C(F)(F)F)n3)n2)ccn1 [Compound 381],< 50 nM,100 to 1000 nM,–,< 50 nM,–,< 50 nM,< 50 nM
FC(F)c1cncc(-c2nc(NC3CCC(F)(F)C3)nc(NC3CCC(F)(F)C3)n2)n1 (stereo not drawn) [Compound 408],< 50 nM,< 50 nM,–,< 50 nM,–,< 50 nM,< 50 nM
CC(C)(O)CNc1nc(NC2CCC(F)(F)C2)nc(-c2cccc(C(F)(F)F)n2)n1 (stereo not drawn) [Compound 264],50 to 100 nM,100 to 1000 nM,100 to 1000 nM,–,100 to 1000 nM,–,–
FC1(F)CC(Nc2nc(Nc3ccnc(C(F)(F)F)c3)nc(-c3nc(C(F)(F)F)cs3)n2)C1 [Compound 388],< 50 nM,50 to 100 nM,–,< 50 nM,–,< 50 nM,< 50 nM
FC1(F)CCC(Nc2nc(NC3CN(c4cccnc4)C3)nc(-c3cccc(C(F)(F)F)n3)n2)C1 (stereo not drawn) [Compound 243],< 50 nM,100 to 1000 nM,50 to 100 nM,–,> 1000 nM,–,–
FC(F)c1cncc(-c2nc(NC3CC(F)(F)C3)nc(NC3CC(F)(F)C3)n2)n1 [Compound 409],< 50 nM,< 50 nM,–,< 50 nM,–,< 50 nM,< 50 nM
CC(C)(O)CNc1nc(Nc2cc(F)cc(F)c2)nc(-n2ccc(C(F)(F)F)n2)n1 [Compound 235],< 50 nM,100 to 1000 nM,< 50 nM,< 50 nM,–,< 50 nM,–
FC1(F)CC(Nc2nc(Nc3ccnc(C(F)(F)F)c3)nc(-c3cncc(C(F)(F)F)n3)n2)C1 [Compound 390],< 50 nM,100 to 1000 nM,–,< 50 nM,–,< 50 nM,50 to 100 nM
